Test: Hair penetration by TOF-SIMS imaging of cross sections of treated hair fibers
Type: physicochemical, human
Conditions: bleached dark brown European hair; agent massaged in, 24 hours at approximately 32° C., rinsed 1 minute, air-dried; positive-ion TOF-SIMS images
Method: What is meant by “penetrate” is that the hair conditioning agent is deposited into a region of the hair following application of the conditioning agent to the hair for twenty-four hours. Such analysis of hair penetration is set forth below in Example 8.
Various hair conditioning agents were tested for their ability to penetrate into human hair. Secondary ion mass spectrometry (SIMS) in combination with a time of flight (TOF) mass spectrometer was used to determine hair penetration. Time-Of-Flight Secondary Ion Mass Spectrometry (TOF-SIMS) makes use of the secondary ion mass spectra (of atomic species or low molecular weight fragments), which are formed when the sample surface (e.g., surface of hair fiber cross sections) is bombarded with a positively charged gallium ion beam. The positive and negative ion mass spectra of the sample were obtained by the time-of-flight method. See, e.g., Ruetsch, et al., J. Cosmet. Sci., 52, 169-184 (2001). The Gallium gun, which emits a pulsed primary ion beam (accelerating voltage of 25 kV), was used in the study.
The protocol was as follows. Dark brown European hair obtained from DeMeo Brothers, New York, N.Y. was bleached for 30 minutes with alkaline 6% hydrogen peroxide (adjusted to pH 10.2 with ammonium hydroxide). […]

CCCCCCCCCCCCCCCC(=O)N[C@@H](CO)C(=O)OCCCCCCCCCCCCCC [Palmitoyl Myristyl Serinate]
penetration of hair conditioning agent into hair fiber cross section: not detected in the cross section of treated hair

From patent US20050069517A1, “Hair conditioning compositions” (priority 2003, published 2005)
